Data taken from the supplement of paper PMC10307832.

How the values were obtained:
Experiment in all cases: relative viability (nuclei count vs DMSO), 5 days (fraction); higher = more cells survive
XMD8-85 + Palbociclib = compound: CN1CCN(CC1)C2=CC(=C(C=C2)NC3=NC=C4C(=N3)N(C5=CC=CC=C5C(=O)N4C)C)OC [XMD8-85] + CC(=O)c1c(C)c2cnc(Nc3ccc(N4CCNCC4)cn3)nc2n(C2CCCC2)c1=O [Palbociclib] (partner 0.5 µM)
Method in brief: (§1)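 Relative viability divides the nuclei count in treated wells by that in vehicle wells. Lung cancer cell lines were seeded in 1536-well plates, dosed by pin tool the next day, and fixed and stained after 5 days in one step with final 0.05% Triton X-100, 1% formaldehyde and 1 ug/ml Hoechst. Dosing was a single drug or a fixed anchor-drug dose plus five library-drug doses (not always all listed) in √10 steps, and values are medians of duplicate plates imaged at 4×.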

4EGI-1 + Bortezomib = compound: O=C(O)C(Cc1ccccc1[N+](=O)[O-])=NNc1nc(-c2ccc(Cl)c(Cl)c2)cs1 (mixture of isomers) [4EGI-1] + CC(C)C[C@H](NC(=O)[C@H](Cc1ccccc1)NC(=O)c1cnccn1)B(O)O [Bortezomib] (partner 0.002 µM)
Method in brief: as §1

4EGI-1 + Vorinostat = compound: O=C(O)C(Cc1ccccc1[N+](=O)[O-])=NNc1nc(-c2ccc(Cl)c(Cl)c2)cs1 (mixture of isomers) [4EGI-1] + O=C(CCCCCCC(=O)Nc1ccccc1)NO [Vorinostat] (partner 1 µM)
Method in brief: as §1

XMD8-85 + Crizotinib = compound: CN1CCN(CC1)C2=CC(=C(C=C2)NC3=NC=C4C(=N3)N(C5=CC=CC=C5C(=O)N4C)C)OC [XMD8-85] + C[C@@H](Oc1cc(-c2cnn(C3CCNCC3)c2)cnc1N)c1c(Cl)ccc(F)c1Cl [Crizotinib] (partner 1 µM)
Method in brief: as §1

Cell Line	relative viability (XMD8-85 + Palbociclib; first compound 0.08 µM)	relative viability (XMD8-85 + Palbociclib; first compound 0.253 µM)	relative viability (XMD8-85 + Palbociclib; first compound 0.8 µM)	relative viability (XMD8-85 + Palbociclib; first compound 2.53 µM)	relative viability (XMD8-85 + Palbociclib; first compound 8 µM)	relative viability (4EGI-1 + Bortezomib; first compound 0.5 µM)	relative viability (4EGI-1 + Bortezomib; first compound 1.581 µM)	relative viability (4EGI-1 + Bortezomib; first compound 5 µM)	relative viability (4EGI-1 + Bortezomib; first compound 15.81 µM)	relative viability (4EGI-1 + Bortezomib; first compound 50 µM)	relative viability (4EGI-1 + Vorinostat; first compound 0.5 µM)	relative viability (4EGI-1 + Vorinostat; first compound 1.581 µM)	relative viability (4EGI-1 + Vorinostat; first compound 5 µM)	relative viability (4EGI-1 + Vorinostat; first compound 15.81 µM)	relative viability (4EGI-1 + Vorinostat; first compound 50 µM)	relative viability (XMD8-85 + Crizotinib; first compound 0.08 µM)	relative viability (XMD8-85 + Crizotinib; first compound 0.253 µM)	relative viability (XMD8-85 + Crizotinib; first compound 0.8 µM)	relative viability (XMD8-85 + Crizotinib; first compound 2.53 µM)	relative viability (XMD8-85 + Crizotinib; first compound 8 µM)
NCI-H1651	0.517	0.534	0.475	0.468	0.405	0.951	0.837	0.934	0.896	0.772	0.523	0.477	0.629	0.481	0.408	0.924	0.855	0.822	0.836	0.772
ABC-1	0.468	0.598	0.781	0.689		0.344	0.291	0.319	0.285	0.214	1.16		1.35	0.439	0.284	1.3	0.882	1.41	0.994	0.49
NCI-H1666	0.679	0.656	0.606	0.632	0.645	1.22	0.693	0.862	0.474	0.228	0.997	1.12	0.949	0.992	0.604	0.789	0.917	1.35	1.31	0.705
LCLC-103H	0.483	0.445	0.489	0.484	0.405	1.03	0.964	0.98	0.955	0.959	0.619	0.75	0.851	0.746	0.282	0.973	1.07	1.14	1.07	0.761
LU99A	0.367	0.36	0.458	0.46	0.368	1.28		1.06	0.873	0.191	0.514	0.421	0.44	0.528	0.261	0.476	0.484	0.687	0.626	0.367
NCI-H322M	0.466	0.447	0.457	0.444	0.431	1.18	1.21	1.18	0.991	1.09	0.998		1.05	0.8	0.482	0.872	1.03	0.929	0.996	0.55
